Data on 10 compounds can be found in PubChem BioAssay (NCI).

Some test systems named below: TK-10 renal; SNB-75 CNS; UO-31 renal; HOP-62 NSCLC; NCI-H522 lung; A549 NSCLC; HL-60(TB) leukemia; NCI-H460 lung; EKVX NSCLC; RXF 393 renal.
Holding throughout (assay): inhibition of tumour cell growth, NCI panel, 48 h

Values joined by “and” are separate entries in the source; they are usually repeats but may differ in a detail not shown here. Equal entries are not always repeated.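 Dose response: 5 concentrations. Exposure: 48 h. Format: 96-well plates. Endpoint: linear interpolation; highest concentration if not reached. GI50 is the concentration that inhibits growth by half. TGI: total growth inhibition.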

Take `O=S(=O)(C1=CC(S(=O)(=O)c2ccccc2)COC1)c1ccccc1` (stereo not drawn): the TGI in the assay on TK-10 renal, in the assay with SNB-75 CNS, in the assay with UO-31 renal, in the assay on HOP-62 NSCLC, in the assay with NCI-H522 lung and in the assay with A549 NSCLC was > 100 µM each time. In addition, the TGI with HL-60(TB) leukemia, in the assay on NCI-H460 lung, in the assay on EKVX NSCLC and with RXF 393 renal was > 100 µM each time.
Regarding `CCCCCCCCSC(=O)NCCCC`, the TGI was > 100 µM in the assay with TK-10 renal; 84.7 µM in the assay on SNB-75 CNS; 51.6 µM in the assay with UO-31 renal; 80.4 µM in the assay on NCI-H522 lung; > 100 µM in the assay on A549 NSCLC; 41.3 µM in the assay with HL-60(TB) leukemia. Besides, the TGI with NCI-H460 lung is > 100 µM; with EKVX NSCLC, 75.4 µM; with RXF 393 renal, 69.3 µM.
Take `Cc1ccccc1/C=C/c1csnn1`: the TGI with TK-10 renal, with SNB-75 CNS, in the assay with UO-31 renal, with HOP-62 NSCLC, with NCI-H522 lung and in the assay on A549 NSCLC was > 100 µM in each case. In addition, the TGI was 39 µM in the assay on HL-60(TB) leukemia, > 75.6 µM in the assay on NCI-H460 lung, > 100 µM in the assay with EKVX NSCLC and > 100 µM in the assay with RXF 393 renal.
As for `Cc1noc2cccc(O)c12`, the TGI in the assay with TK-10 renal, in the assay with SNB-75 CNS, in the assay with UO-31 renal, in the assay with HOP-62 NSCLC, in the assay on NCI-H522 lung and with A549 NSCLC was > 100 µM throughout. Moreover, the TGI in the assay on HL-60(TB) leukemia, in the assay on NCI-H460 lung, with EKVX NSCLC and in the assay with RXF 393 renal was > 100 µM each time.
As to `CCOC(=O)/C(=C/CC/C(C)=C/CC/C(C)=C/CCc1ccoc1)CC(=O)N1CCCCC1`, the GI50 with TK-10 renal is 5.66 µM; with SNB-75 CNS it was 4.1 µM; in the assay on UO-31 renal, 2.8 µM; in the assay on HOP-62 NSCLC, 4.4 µM; in the assay on NCI-H522 lung, 2.75 µM; in the assay with A549 NSCLC, 1.92 µM. The GI50 in the assay with HL-60(TB) leukemia is 2.99 µM; in the assay with NCI-H460 lung it was 1.82 µM; in the assay on RXF 393 renal, 2.45 µM. The TGI with TK-10 renal is 75.5 µM; in the assay on SNB-75 CNS it was 35.3 µM; in the assay on UO-31 renal it was 12.8 µM; with HOP-62 NSCLC, 19.8 µM; with NCI-H522 lung it was 9.2 µM; with A549 NSCLC it was 4.14 µM. In addition, the results for the TGI in the assay on HL-60(TB) leukemia, in the assay on NCI-H460 lung and in the assay with RXF 393 renal were 7.4 µM, 3.7 µM and 9.62 µM, respectively.
With `CCN(C(=O)N1CCN(c2cc3c(cc2F)c(=O)c(C(=O)O)cn3C2CC2)CC1)c1nc(-c2ccccc2)cs1`, the GI50 in the assay on TK-10 renal is 3.37 µM; with SNB-75 CNS, 3.66 µM; with UO-31 renal, 2.31 µM; in the assay on HOP-62 NSCLC it was 2.82 µM; in the assay on NCI-H522 lung, 2.01 µM; in the assay on A549 NSCLC, 3.11 µM. Also, the GI50 in the assay on HL-60(TB) leukemia is 1.59 µM; in the assay on NCI-H460 lung, 3.11 µM; in the assay on EKVX NSCLC, 3.35 µM; in the assay with RXF 393 renal, 2.52 µM. Further, the TGI with TK-10 renal is 53.2 µM; in the assay on SNB-75 CNS it was 16.4 µM; in the assay on UO-31 renal, > 100 µM; in the assay on HOP-62 NSCLC it was > 100 µM; in the assay with NCI-H522 lung, 7.61 µM; in the assay on A549 NSCLC, > 100 µM. Also, the TGI was 4.35 µM with HL-60(TB) leukemia, > 100 µM with NCI-H460 lung, > 100 µM in the assay with EKVX NSCLC and 8.88 µM with RXF 393 renal.
Regarding `Oc1ccc(NC(=S)Nc2ccccc2)cc1`, the GI50 in the assay with TK-10 renal, in the assay on SNB-75 CNS, in the assay with UO-31 renal, with HOP-62 NSCLC, with NCI-H522 lung and with A549 NSCLC was > 100 µM each time. Further, the GI50 in the assay on HL-60(TB) leukemia, with NCI-H460 lung, in the assay with EKVX NSCLC and in the assay on RXF 393 renal was > 100 µM in each case. Also, the TGI with TK-10 renal, in the assay with SNB-75 CNS, in the assay with UO-31 renal, in the assay on HOP-62 NSCLC, in the assay on NCI-H522 lung and in the assay on A549 NSCLC was > 100 µM each time. In addition, the TGI in the assay with HL-60(TB) leukemia, in the assay on NCI-H460 lung, with EKVX NSCLC and in the assay with RXF 393 renal was > 100 µM in each case.
With `COC(=O)C(=O)C(CC(=O)Nc1cc(Cl)ccc1Cl)C(=O)OC` (stereo not drawn), the TGI in the assay with TK-10 renal, with SNB-75 CNS, with UO-31 renal, in the assay on HOP-62 NSCLC, in the assay with NCI-H522 lung and in the assay on A549 NSCLC was > 100 µM in each case. Besides, the TGI in the assay on HL-60(TB) leukemia, in the assay with NCI-H460 lung, in the assay with EKVX NSCLC and in the assay with RXF 393 renal was > 100 µM in each case.
In the case of `O=C(Nc1ccc(OS(=O)(=O)c2ccc(F)cc2)cc1)C12CC3CC(CC(C3)C1)C2`, the GI50 was 21.5 µM in the assay with TK-10 renal; 4.51 µM in the assay with SNB-75 CNS; 6.21 µM in the assay with UO-31 renal; 11.3 µM in the assay with HOP-62 NSCLC; 1.72 µM with NCI-H522 lung; 5.25 µM in the assay on A549 NSCLC. For the same compound, the values for the GI50 in the assay on HL-60(TB) leukemia, with NCI-H460 lung and with RXF 393 renal were > 29 µM, 8.09 µM and 3.15 µM, respectively. The TGI with TK-10 renal was 62.6 µM; with SNB-75 CNS it was 26.8 µM; in the assay on UO-31 renal, > 100 µM; in the assay on HOP-62 NSCLC, 30.6 µM; with NCI-H522 lung, > 100 µM; with A549 NSCLC, > 100 µM. Also, the TGI is > 100 µM in the assay on HL-60(TB) leukemia, > 100 µM with NCI-H460 lung and 22.5 µM with RXF 393 renal.
`CC[C@@]1(O)C(=O)OCc2c1cc1n(c2=O)Cc2cc3cc(Cl)ccc3nc2-1`: the GI50 was 2.58 µM and 1.87 µM in the assay with TK-10 renal; 0.00253 µM in the assay with SNB-75 CNS; 0.00266 µM with UO-31 renal; < 0.001 µM with HOP-62 NSCLC; 0.00946 µM and 0.022 µM with NCI-H522 lung; 0.00656 µM in the assay on A549 NSCLC. Also, the GI50 with HL-60(TB) leukemia is 0.00156 µM and 0.0131 µM; in the assay on NCI-H460 lung, < 0.001 µM; with EKVX NSCLC, 0.282 µM and 0.302 µM; with RXF 393 renal, 0.0106 µM. In addition, the TGI is > 100 µM in the assay with TK-10 renal; 0.053 µM and 0.0414 µM in the assay on SNB-75 CNS; 0.0816 µM in the assay with UO-31 renal; 0.298 µM and 0.843 µM in the assay on NCI-H522 lung; 1.42 µM and 1.21 µM in the assay on A549 NSCLC; 0.0118 µM with NCI-H460 lung. Further, the TGI in the assay on EKVX NSCLC is 5.73 µM and 4.9 µM; with RXF 393 renal it was 0.137 µM.
